One data set concerns the target δ receptor (Homo sapiens (Human), UniProt P41143). The data set can be described thus: Competitive delta receptor binding assay (3H-DADLE).
The target in a further data set is hERG (Homo sapiens (Human), UniProt Q12809). The data set can be described thus: in vitro. The settings on record: pH 7.4.
In another data set the target is κ receptor (Homo sapiens (Human), UniProt P41145). The data set can be described thus: Competitive Kappa receptor binding assay (3H-U69593).
Data set [1] concerns ICR mice. Briefly: Acetic acid writhing test in mice. The format is in vivo. The note with it: Mus musculus, read-out: Acetic acid writhing in mice ED50. Background: An intraperitoneal irritant provokes the stretching counted in writhing tests.
For a further data set, the target named is μ receptor (Homo sapiens (Human), UniProt P35372). The data set can be described thus: μ receptor affinity assay (3H-DAMGO). It counts as binding.
Data set [2] deals with ICR mice. The settings on record: mouse, in vivo.
Data set [3] has as its target κ-opioid receptor (Kappa) (Homo sapiens (Human), UniProt P41145). Briefly: In vitro functional assay, HTRF cAMP-Gi in CHO-K1-OPRK1 cells. The format is cell-based. For orientation: In TR-FRET formats the signal depends on donor and acceptor labels being close together.
Data set [4] can be described thus: Autonomous activity test in mice. The settings on record: male, ICR, mouse, in vivo, iv.
A further data set can be described thus: in vivo. The note with it: male, ICR, mouse, iv.
The test system of data set [5] is ICR mice. The data set can be described thus: Sedation safety window. The settings on record: sedation side effect ED50 (autonomic activity test)/efficacy ED50 (acetic acid writhing test).
Data set [6] in a line: PK and blood-brain barrier permeability in mice. The note with it: male ICR mice, intravenous 1 mg/kg. It counts as in vivo. How it is done:
The compounds of the present disclosure were investigated for pharmacokinetic characteristics and blood-brain barrier permeability in mice.
Healthy male ICR mice were randomly grouped, 6 animals per group. For each test compound, 3 groups of animals were used. The first group of animals was used for collecting blood and brain 5 min after the administration, and the second group of animals and the third group of animals were used for cross blood collection at subsequent time points; each test compound was intravenously administered (1 mg/kg) to corresponding groups of mice, and blood sampling via submaxillary veins of the mice was carried out at different time points. Drug contents in plasma and brain tissues at different time points were measured by an LC-MS/MS method, the brain-to-blood ratio B/P was calculated by using EXCEL software, and pharmacokinetic parameters were calculated by using DAS3.0 software.

Setting [7] is: single intravenous injection, male ICR mice.

Like-named read-outs stand apart in the source and are kept apart here.

As to `COC(=O)NC1CCN(C(=O)[C@@H](CCCCN)NC(=O)[C@@H](CC(C)C)NC(=O)[C@@H](Cc2ccccc2)NC(=O)[C@H](N)Cc2ccccc2)CC1` [Compound 1A], the values for the Ki on δ receptor, at κ receptor and on μ receptor were more than 1000 nM, 0.4 nM and more than 1000 nM, respectively. The inhibition at 10 µM against hERG was -0.94%. Moreover, the ED50 with ICR mice [1] (setting [7]) is 0.38 mg/kg. The compound further returned a Safety window with ICR mice [2] of 2.84. The EC50 in data set [3] worked out at 0.05 nM. In [4], this compound showed an ED50 at 30 min of 1.08 mg/kg.

Consider `CC(C)C[C@@H](NC(=O)[C@@H](Cc1ccccc1)NC(=O)[C@H](N)Cc1ccccc1)C(=O)N[C@H](CCCCN)C(=O)N1CCS(=N)(=O)CC1` [Compound 1B, (R)—N—((R)-6-amino-1-(1-imino-1-oxo-1λ6-thiomorpholine)-1-oxohex-2-yl)-2-((R)-2-((R)-2-amino-3-phenylpropionylamino)-3-phenylpropionylamino)-4-methylpentanamide], for which the Ki was more than 1000 nM at δ receptor, 0.42 nM at κ receptor and more than 1000 nM at μ receptor. For the same compound, on hERG, the inhibition at 10 µM worked out at 1.2%. Moreover, the ED50 is 0.2 mg/kg in the data set on ICR mice [1] (iv) and 0.5 mg/kg in the data set “in vivo”. Also, the Safety window with ICR mice [2] was 2.50. In [3], this compound registered an EC50 of 0.52 nM.

On to `CC(=O)N=S1(=O)CCN(C(=O)[C@@H](CCCCN)NC(=O)[C@@H](CC(C)C)NC(=O)[C@@H](Cc2ccccc2)NC(=O)[C@H](N)Cc2ccccc2)CC1` [Compound 3B], for which the Ki on δ receptor was more than 1000 nM; at κ receptor, 1.05 nM; at μ receptor, more than 1000 nM. The inhibition at 10 µM on hERG turned out to be 1.13%. Moreover, the ED50 with ICR mice [1] (iv) came out at 0.42 mg/kg. This compound came in with a Safety window with ICR mice [2] of 7.74. The compound further came in with an EC50 in data set [3] of 1 nM.

In the case of `CC(C)C[C@@H](NC(=O)[C@@H](Cc1ccccc1)NC(=O)[C@H](N)Cc1ccccc1)C(=O)N[C@H](CCCCN)C(=O)N1CCC2(CC1)OC(=O)Nc1ncccc12` [Compound 4A, (2R)—N-[(2R)-6-amino-1-oxo-1-{2′-oxo-1′H-spiro[piperidine-4,4′-pyrido[2,3-d][1,3]oxazin]-1-yl}hex-2-yl]-2-[(2R)-2-[(2R)-2-amino-3-phenylpropionylamino]-3-phenylpropionylamino]-4-methylpentanamide], the Ki on δ receptor was more than 1000 nM; on κ receptor it was 0.3 nM; on μ receptor it was more than 1000 nM. The inhibition at 10 µM against hERG worked out at 0.9%. The ED50 in the data set with ICR mice [1] (setting [7]) turned out to be 0.41 mg/kg. In the data set with ICR mice [5], this compound came in with a Safety window of 3.05. In [3], this compound showed an EC50 of 0.2 nM. In addition, the ED50 at 30 min in data set [4] was 1.25 mg/kg.

On to `CC(C)C[C@@H](NC(=O)[C@@H](Cc1ccccc1)NC(=O)N(CCN)Cc1ccccc1)C(=O)N[C@H](CCCCN)C(=O)N1CCC(N)(C(=O)O)CC1` [Compound 13], for which the “B/P (brain-to-blood ratio)” value in data set [6] (blood and brain 5 min after administration) is 0.015. In data set [6] (mouse, plasma), this compound showed a total exposure AUC(0-inf) of 1350 ng·h/mL, a Vd of 0.38 L/kg, a clearance of 12.3 mL/min/kg and a Cmax of 2540 ng/mL. Besides, the half-life in data set [6] (mouse, plasma, read-out: t½ (converted)) is 21 min. On δ receptor, this compound registered a Ki of more than 1000 nM. The inhibition at 10 µM at hERG worked out at 0.8%. For the same compound, the Ki at κ receptor turned out to be 0.13 nM. Moreover, in the data set with ICR mice [1] (setting [7]), the ED50 came out at 0.23 mg/kg. In addition, the Ki on μ receptor was more than 1000 nM. Besides, the Safety window in the data set on ICR mice [5] worked out at 12.30. For the same compound, in data set [3], the midpoint of the response, the EC50, lay at 0.52 nM. For the same compound, in [4], the ED50 at 30 min was 2.83 mg/kg.

As usually defined, the Ki is a dissociation constant, usually derived from enzyme kinetics or from competition with a known ligand. A word on the inhibition: it is the relative decrease from the control value, in per cent. A word on the ED50: it is the dose that gives a 50% effect, or the effect in half of the subjects. In general, EC50 refers to the concentration giving half of the maximal effect. Usually AUC(0-inf) stands for the area under the concentration-time curve extrapolated to infinity. Read a high AUC(0-inf) as high exposure. Broadly, the Vd is the apparent volume that relates the amount in the body to the concentration in plasma or blood. A low value points to confinement near the circulation. The term clearance denotes the rate of elimination divided by the concentration. A lower clearance goes with inefficient removal. By Cmax is commonly meant the peak of the concentration-time curve.

The record behind these values is patent publication US20250230129A1, “POLYAMIDE COMPOUNDS, METHOD FOR PREPARING SAME, AND MEDICAL USE THEREOF” (priority 2022, published 2025).
